# Measured values: paper PMC9655618 (Cancers, 2022)
# Key:
# VERO cells = test: MTT cell viability assay; format: cell-based, monkey; details: Primates, Vero, 72 h, 10%FBS growth media
# Description: Straightforward, the tetrazolium salt 3-(4,5-methyltiazol-2yl-)-2,5diphenyl-tetrazolium bromide (MTT) (Applichen, Darmstadt, Germany) was added to cells, incubated for 2–4 h at 37 °C, and lysed in 10% SDS.
# [1] = test system: ERα, pS2 and PR mRNA in Ishikawa cells; test: Quantitative real-time PCR of ERα-regulated genes; format: cell-based, human; details: for effect on E2-induced mRNA expression: 3 h pretreatment, E2 10 nM 24 h; for induction of basal mRNA level of PR gene: absence of E2
# Description: (§1) For gene expression analysis, MCF-7 and Ishikawa cells were deprived of steroid hormones by using a 10DCC-FBS medium for five days. Then, 1,500,000 cells/dish were seeded in 5DCC-FBS, followed by treatment with test compounds. Total RNA was isolated by using TRItidy G™ (Panreac Applichem ITW Reagents, Darmstadt, Germany). The concentration and purity of RNA were determined with a NanoDrop 1000 spectrophotometer (Wilmington, NC, USA). Then, 1 µg of total RNA was reversed and amplified with the iScriptTM kit (Bio-Rad) following the manufacturer’s protocol. SYBR Green PCR Master mix (Applied Biosystems, Bedford, MA, USA) reagent and exon-specific primers for ERα were used for Real-time quantitative PCR (qPCR). Gene expression was analyzed with an Mx3005P qPCR System (Agilent, Santa Clara, CA, USA), and cycle threshold values were calculated using MxPro qPCR Software (Agilent, CA, USA). Target gene expression was normalized to the expression of the 18S housekeeping gene. Data were expressed as relative expression values according to the comparative CT method for qPCR [42].
# [2] = test system: ERα, pS2 and PR mRNA in MCF-7 cells; test: Quantitative real-time PCR of ERα-regulated genes; format: cell-based, human; details: 3 h pretreatment, E2 10 nM 24 h; 32 5 µM, 35 10 µM, ICI 0.1 µM, 4-OHTAM 1 µM
# Description: as §1
# [3] = test system: STAT5 transcriptional activity in Ba/F3 cells; test: IL3-stimulated STAT5 transcriptional activity, Renilla reporter Ba/F3 cells; details: 4 h pretreatment, mIL3 30 ng/ml 16 h
# T47D cells = test: Cell cycle analysis by flow cytometry; format: cell-based, human; details: 5 μM; 48h
# Description: For cell cycle studies, unsynchronized T47D cells were seeded at 250,000 cells/well in RPMI (Biowest, Nuaillé, France) 10% FBS medium supplemented with L-glutamine (2 mM), HEPES (10 mM), sodium pyruvate (1 mM) and PEST. […] Cells were then washed in ice-cold PBS and fixed in cold 70% ethanol at −20 °C overnight. Then, the cell pellet was resuspended in FACs buffer (2 mM EDTA, 2% FBS in PBS) and incubated with Ki67-APC antibody (Miltenyi Biotec, Auburn, CA, USA) and DAPI (4′,6-diamidino-2-phenylindole; Sigma-Aldrich) for 20 min at room temperature. Finally, cells were washed and resuspended with FACs Buffer for cell cycle analyses. For apoptosis studies, an Annexin V-FITC Apoptosis Kit (Miltenyi Biotec) was used. Briefly, treated cells were collected in 100 μL of ice-cold AnnexinV binding buffer (10 mM HEPES pH 7.4, 140 mM NaCl, 2.5 mM CaCl2) containing 10 μL of Annexin-V FITC and incubated for 15 min at room temperature. After that, cells were washed with 1 mL binding buffer, sedimented at 300× g 10 min, and resuspended with 500 μL binding buffer containing 5 μL of propidium iodide (PI; 100 μg/mL) prior to acquisition in MACSQuant10 cytometer (Miltenyi Biotec) where 10,000 or 20,000 events were used for cell cycle and apoptosis analysis, respectively.
# [4] = test system: polyubiquitinated protein level in T47D cells; test: Immunoblotting; format: cell-based, human; details: from 24 h to 72 h
# Description: Then, they were washed with ice-cold PBS supplemented with 1 mM ortovanadate and lysed with RIPA buffer containing protease and phosphatase inhibitors (Thermo Fisher Scientific, Waltham, MA, USA). Equal protein amounts were analyzed by SDS–PAGE, and transferred to nitrocellulose membranes (Thermo Fisher Scientific, Waltham, MA, USA), blocked with Tris-buffered saline/0.05% Tween 20 (TBS-T) containing 5% blotto (Merck, Darmstadt, Germany) or 5% BSA for total and phosphorylated proteins, respectively. Immunoblotting was carried out with mouse anti-ERα F-10 (Santa Cruz Biotech, Santa Cruz, CA, USA), rabbit total anti-STAT5 (Cell Signaling Technology, Leiden, The Netherlands) or mouse anti-polyubiquitin (EMD Millipore, Burlington, MA, USA). After washing, membranes were incubated with horseradish peroxidase-conjugated secondary antibodies (Bio-Rad) for 1 h at room temperature. The β-actin antibody (Santa Cruz Biotech, CA, USA) was used as the loading control. Finally, protein bands were visualized by using Clarity™ Western ECL Substrate (Bio-Rad) in the ChemiDoc XRS system (Bio-Rad) and were analyzed with Quantity One software (Bio-Rad).
# [5] = test system: STAT3 transcriptional activity in HEK293 cells; test: IL6-induced STAT3 transcriptional activity, Renilla reporter HEK-293 cells; details: 4 h pretreatment, hIL6 10 ng/ml 16 h
# [6] = test system: ERα-mediated transcription (3xERE-luciferase), T47D-KBluc cells; test: ER-dependent transcriptional activity, 3xERE-luciferase reporter in T47D-KBluc cells; details: until dropping to 20% Emax
Compound,IC50 (VERO cells),effect on E2-induced mRNA expression [1],induction of basal mRNA level of PR gene [1],effect on E2-induced mRNA expression [2],"IC50, IL3-stimulated STAT5 transcriptional activity [3]",G2/S/M cells (T47D cells),effect on polyubiquitinated protein level [4],"IC50, IL6-induced STAT3 transcriptional activity [5]",effect on E2-induced luciferase activity [6]
"Cc1ccc(C2=CC(O)(c3ccccc3)N(Cc3ccccc3)C2=O)cc1C (stereo not shown) [compound 32, 1-benzyl-3-(3,4-dimethylphenyl)-5-hydroxy-5-phenyl-1H-pyrrol-2(5H)-one]",14.7 ± 1.31 µM,significative reduction of PR-activated gene expression,2.5 fold,"inhibited E2-induced ERα, pS2 and PR mRNA expression",no activity,–,–,–,–
"O=C1C(c2ccc([N+](=O)[O-])cc2)=CC(O)(c2ccccc2)N1Cc1ccccc1 (stereo not shown) [compound 35, 1-benzyl-5-hydroxy-3-(4-nitrophenyl)-5-phenyl-1H-pyrrol-2(5H)-one]",9.61 ± 0.16 µM,notably downregulated E2-induced ERα and PR mRNA levels,5 fold,"inhibited E2-induced ERα, pS2 and PR mRNA expression",–,16.52%,significantly increased polyubiquitinated protein level,inactive,reduced E2-induced luciferase activity
